{
  "source": "patent US4528027A",
  "about": "“Acylthio-substituted triazines” (Shell Oil Company, priority 1984, dated 1985)",
  "data": [
    {"experiment": "Approximate solubility in xylene at room temperature", "format": "physicochemical", "settings": "not given", "values": [
      {"molecule": "CCN(SC(=O)OC)c1nc(Cl)nc(NC(C)(C)C#N)n1", "note": "[Compound 1, 2-chloro-4-(1-cyano-1-methylethylamino)-6-(N-ethyl-N-((methoxycarbonyl)thio))-1,3,5-triazine]", "Approximate Solubility at Room Temperature, Grams of Compound per 100 Grams of Xylene": "26 Grams of Compound per 100 Gram"},
      {"molecule": "CCN(SC(=O)OC)c1nc(Cl)nc(NC(C)C)n1", "note": "[Compound 5]", "Approximate Solubility at Room Temperature, Grams of Compound per 100 Grams of Xylene": "> 150 Grams of Compound per 100 Gram"},
      {"molecule": "CCN(SC(=O)OC)c1nc(NC(C)C)nc(OC)n1", "note": "[Compound 14, 2-methoxy-4-(1-methylethylamino)-6-(N-ethyl-N-((methoxycarbonyl)thio))-1,3,5-triazine]", "Approximate Solubility at Room Temperature, Grams of Compound per 100 Grams of Xylene": "> 150 Grams of Compound per 100 Gram"},
      {"molecule": "CCN(SC(=O)OC)c1nc(NC(C)C)nc(SC)n1", "note": "[Compound 15, 2-(methylthio)-4-(1-methylethylamino)-6-(N-ethyl-N-((methoxycarbonyl)thio))-1,3,5-triazine]", "Approximate Solubility at Room Temperature, Grams of Compound per 100 Grams of Xylene": "> 150 Grams of Compound per 100 Gram"}
    ]},
    {"experiment": "Approximate solubility in xylene at room temperature", "format": "physicochemical", "settings": "xylene, room temperature", "values": [
      {"molecule": "CCNc1nc(Cl)nc(NC(C)(C)C#N)n1", "note": "[Compound 1B, 2-chloro-4-(1-cyano-1-methylethylamino)-6-ethylamino-1,3,5-triazine, reference compound]", "Approximate Solubility at Room Temperature, Grams of Compound per 100 Grams of Xylene": "0.3 Grams of Compound per 100 Gram"},
      {"molecule": "CCNc1nc(NC(C)C)nc(OC)n1", "note": "[Compound 14A, 2-methoxy-4-(1-methylethylamino)-6-ethylamino-1,3,5-triazine, reference compound]", "Approximate Solubility at Room Temperature, Grams of Compound per 100 Grams of Xylene": "25 Grams of Compound per 100 Gram"}
    ]}
  ]
}
